In the supplement of paper PMC10307832:

Columns and labels:
Experiment in all cases: relative viability (nuclei count vs DMSO), 5 days (fraction); higher = more cells survive
[1] = compound: O=C(O)C(Cc1ccccc1[N+](=O)[O-])=NNc1nc(-c2ccc(Cl)c(Cl)c2)cs1 (mixture of isomers) [4EGI-1] + Cc1nc(NC(=O)N2CCC[C@H]2C(N)=O)sc1-c1ccnc(C(C)(C)C(F)(F)F)c1 [Alpelisib] (partner 2 µM)
How it was run: (§1)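 Cells from lung cancer lines were seeded into 1536-well plates and, one day later, dosed by pin tool. Treatments were either a single drug or a fixed dose of an anchor drug with five library-drug doses (not always all listed) in √10 steps. After 5 days, nuclei were stained in a one-step fixation (final 0.05% Triton X-100, 1% formaldehyde, 1 ug/ml Hoechst) and counted on 4× images, and relative viability is the treated-to-vehicle nuclei ratio, as the median of duplicate plates.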

[2] = compound: O=C(O)C(Cc1ccccc1[N+](=O)[O-])=NNc1nc(-c2ccc(Cl)c(Cl)c2)cs1 (mixture of isomers) [4EGI-1] + O=C(c1cc(Cc2n[nH]c(=O)c3ccccc23)ccc1F)N1CCN(C(=O)C2CC2)CC1 [Olaparib] (partner 8 µM)
How it was run: as §1

[3] = compound: O=C(O)C(Cc1ccccc1[N+](=O)[O-])=NNc1nc(-c2ccc(Cl)c(Cl)c2)cs1 (mixture of isomers) [4EGI-1] + Cc1cc(Nc2cc(N3CCN(C)CC3)nc(Sc3ccc(NC(=O)C4CC4)cc3)n2)n[nH]1 [Tozasertib] (partner 0.1 µM)
How it was run: as §1

[4] = compound: CN1CCN(CC1)C2=CC(=C(C=C2)NC3=NC=C4C(=N3)N(C5=CC=CC=C5C(=O)N4C)C)OC [XMD8-85] + CS(=O)(=O)CCNCc1ccc(-c2ccc3ncnc(Nc4ccc(OCc5cccc(F)c5)c(Cl)c4)c3c2)o1 [Lapatinib] (partner 2 µM)
How it was run: as §1

Cell Line | relative viability ([1]; first compound 0.5 µM) | relative viability ([1]; first compound 5 µM) | relative viability ([1]; first compound 15.81 µM) | relative viability ([1]; first compound 50 µM) | relative viability ([2]; first compound 0.5 µM) | relative viability ([2]; first compound 5 µM) | relative viability ([2]; first compound 15.81 µM) | relative viability ([2]; first compound 50 µM) | relative viability ([3]; first compound 0.5 µM) | relative viability ([3]; first compound 5 µM) | relative viability ([3]; first compound 15.81 µM) | relative viability ([3]; first compound 50 µM) | relative viability ([4]; first compound 0.08 µM) | relative viability ([4]; first compound 0.253 µM) | relative viability ([4]; first compound 0.8 µM) | relative viability ([4]; first compound 2.53 µM) | relative viability ([4]; first compound 8 µM) | relative viability ([1]; first compound 1.581 µM) | relative viability ([2]; first compound 1.581 µM) | relative viability ([3]; first compound 1.581 µM)
NCI-H1944 | 0.86 | 0.796 | 0.642 | 0.672 | 0.506 | 0.391 | 0.308 | 0.298 | 0.262 | 0.241 | 0.192 | 0.202 | 0.784 | 0.733 | 0.897 | 1.02 | 0.702 |  |  | 
NCI-H1734 | 0.686 | 0.753 | 0.719 | 0.491 | 0.642 | 0.695 | 0.435 | 0.244 | 0.263 | 0.263 | 0.288 | 0.214 | 1.05 | 0.977 | 1.03 | 1.17 | 0.987 | 0.599 | 0.512 | 0.27
SK-LU-1 | 1.23 | 1.26 | 0.806 | 0.232 | 0.484 | 0.439 | 0.431 | 0.224 | 0.374 | 0.381 | 0.259 | 0.227 | 0.549 | 0.892 | 0.852 | 1.07 | 0.699 | 1.01 | 0.448 | 0.335
